From paper PMC8284453 (Antimicrobial Agents and Chemotherapy, 2021)
≈ marks a conversion by molar mass, not a printed value. Read-outs that look alike come from different tables or passages of the source.

Columns and labels:
CTX-M-15 [1] = target: T1, CTX-M-15 (Escherichia coli, UniProt Q9EXV5); experiment: IC50 determination against purified β-lactamase; format: biochemical; design: made in house; host or cells: E. coli BL21(DE3), plasmid pET-CTX-M-15 (pET9a)
Protocol: (§1) An equal volume of enzyme was added (assay concentrations, 0.6 nM P99AmpC, 21 nM CTX-M-15, 3 nM KPC-2, 100 nM SHV-5), and the mixtures were preincubated for 15 min at 37°C. For AmpC, nitrocefin was then added to obtain a final concentration of 100 μM, and the absorbance at a wavelength (λ) of 486 nm (representing hydrolysis of the nitrocefin β-lactam ring) was monitored immediately using a BioTek Powerwave XS2 microplate reader. In similar fashion, using UV-transparent 96-well microtiter plates, hydrolysis of imipenem (100 μM) by KPC-2 was monitored at λ 300 nm, while cefotaxime (100 μM) hydrolysis by CTX-M-15 and SHV-5 was monitored at λ 300 nm. Assays were performed in duplicate, and the percentage inhibition relative to reaction mixtures containing no inhibitor were determined for each concentration of inhibitor.

P99AmpC [2] = target: T2, P99AmpC (Enterobacter cloacae, UniProt P05364); experiment: IC50 determination against purified β-lactamase; format: biochemical; design: P99AmpC was purified directly from the Enterobacter cloacae P99 clinical isolate; made in house; host or cells: Enterobacter cloacae P99 (native producer, induced with sub-MIC imipenem); conditions: substrate nitrocefin; mean from duplicate measurements
Protocol: as §1

CMY-2 = target: T3, CMY-2 (Klebsiella pneumoniae, UniProt Q48434); experiment: IC50 determination against purified β-lactamase; format: biochemical
T3 construct: made in house; host or cells: E. coli BL21(DE3), pET9a

OXA-1 = target: T4, OXA-1 (Escherichia coli, UniProt P13661); experiment: IC50 determination against purified β-lactamase; format: biochemical; conditions: substrate nitrocefin; mean from duplicate measurements
T4 construct: made in house; host or cells: E. coli BL21(DE3), pET9a

OXA-48 = target: T5, OXA-48 (Klebsiella pneumoniae, UniProt Q6XEC0); experiment: biochemical
T5 construct: made in house; host or cells: E. coli BL21(DE3), plasmid pET-OXA-48 (pET9a)

KPC-2 [3] = target: T6, KPC-2 (Klebsiella pneumoniae, UniProt Q9F663); experiment: IC50 determination against purified β-lactamase; format: biochemical; design: made in house; host or cells: E. coli BL21(DE3), plasmid pET-KPC-2 (pET9a); conditions: substrate imipenem; mean from duplicate measurements
Protocol: as §1

[4] = system: isogenic strains of E. coli expressing Ambler class A, B, C, and D enzymes; experiment: microbe, parasite or virus in culture; format: cell-based, Escherichia coli; conditions: Escherichia coli, read-out: modal MIC
[5] = system: K. pneumoniae 752286 (OXA-48); experiment: Broth microdilution MIC; format: cell-based; conditions: Klebsiella pneumoniae
[6] = system: K. pneumoniae 752286 (OXA-48); experiment: 24-h time-kill assay; format: cell-based; conditions: Klebsiella pneumoniae; lowest concentration with ≥3-log10 CFU/ml reduction at 24 h; read-out: MBC
Protocol: (§2) In vitro antibacterial time-kill assay. […] Time-kill assays were performed in 14 ml glass tubes or deep-well storage plates with a bacterial inoculum in CAMHB of 5 × 10^5 CFU/ml. The tubes/plates were incubated at 37°C with shaking at 200 rpm, and aliquots were drawn at six time points (0, 2, 4, 6, 8, and 24 h) to conduct 0.5 log10 dilutions in CAMHB in 96-well plates that were incubated overnight at 37°C and used to ascertain viable bacterial counts. The lowest quantifiable amount by this method is 2 log10 CFU/ml.

[7] = system: K. pneumoniae ATCC BAA-1705 (KPC-2); experiment: 24-h time-kill assay; format: cell-based; conditions: Klebsiella pneumoniae, ATCCBAA1705; lowest concentration with ≥3-log10 CFU/ml reduction at 24 h; read-out: MBC
Protocol: as §2

[8] = system: E. cloacae ECL01 (TEM-72, ACT-1, P99AmpC); experiment: 24-h time-kill assay; format: cell-based
Protocol: as §2

E. coli ESBL4 (CTX-M-15) [9] = experiment: 24-h time-kill assay; format: cell-based; conditions: Escherichia coli; lowest concentration with ≥3-log10 CFU/ml reduction at 24 h; read-out: MBC
Protocol: as §2

[10] = system: E. cloacae ECL01 (TEM-72, ACT-1, P99AmpC); experiment: Broth microdilution MIC; format: cell-based; conditions: Enterobacter cloacae
[11] = system: K. pneumoniae ATCC BAA-1705 (KPC-2); experiment: Broth microdilution MIC; format: cell-based; conditions: Klebsiella pneumoniae, ATCCBAA1705
E. coli ESBL4 (CTX-M-15) [12] = experiment: Broth microdilution MIC; format: cell-based; conditions: Escherichia coli
KPC-2 [13] = target: T6, KPC-2; experiment: biochemical
P99AmpC [14] = target: T2, P99AmpC; experiment: Kinetic parameters of reversible inactivation
[15] = target: T7, protein serine/threonine phosphatase, PPP3CA (calcineurin PP2B) (Homo sapiens, UniProt Q08209); experiment: DrugMatrixScreen selectivity panel; format: biochemical; conditions: screening concentration of 100 μM
T7 construct: Eurofins/Panlabs (DrugMatrixScreen, contract assay)
Protocol: (§3) Binding, enzymatic, and uptake assays representing a wide range of cellular and subcellular target classes were performed. […] The in vivo significance of these in vitro activities is not known.
(§4) The selectivity of VNRX-5236 was assessed in the DrugMatrixScreen at Eurofins Discovery Services. This screen encompasses 123 mammalian receptor and enzyme classes (and a single prokaryotic target, a β-lactamase) that can be used to assess the potential off-target activities of development candidates ([34]).

[16] = target: T8, protein tyrosine kinase Fyn (Homo sapiens, UniProt P06241); experiment: DrugMatrixScreen selectivity panel; format: biochemical; conditions: screening concentration of 100 μM
T8 construct: Eurofins/Panlabs (DrugMatrixScreen, contract assay)
Protocol: as §3, §4

SHV-5 = target: T9, SHV-5 (Klebsiella pneumoniae, UniProt P0A3M1); experiment: biochemical; format: biochemical
T9 construct: made in house; host or cells: E. coli BL21(DE3)/pLysS, plasmid pET-SHV-5 (pET9a)

CTX-M-15 [17] = target: T1, CTX-M-15; experiment: biochemical
3T3 = experiment: Mammalian cell cytotoxicity; format: cell-based; conditions: dividing cell cultures
Protocol: (§5) Mammalian cell cytotoxicity. Cytotoxicity evaluations were conducted on actively dividing cells to maximize assay sensitivity. Procedurally, 180 μl of cells were seeded in cell-culture-treated 96-well plates (Celltreat, Pepperell, MA) at a density of 2 × 10^4 to 3.5 × 10^4 cells/ml and incubated overnight at 37°C in a humidified, 5% CO2 atmosphere. The next day, compound was diluted in PBS with 6% DMSO in a 0.5 log10 dilution scheme at 10 times the final compound concentration array. […] The cytotoxic agent chlorohexidine was assayed as a positive control at compound concentrations ranging from 0.31 to 100 μg/ml. The final DMSO concentration in all assays was 0.6%.
(§6) After an additional 72 h of incubation (when cells reached 90 to 100% confluence) Cell Titer 96 AQ solution was added at 20 μl per well, and plates were incubated an additional 2 to 4 h at 37°C and 5% CO2. The optical density of the wells was read on a Biotek Cytation 3 plate reader at 490 nm. Background signal (wells receiving Cell Titer reagent but containing no cells) was subtracted from all wells on the plate. […] Experiments were run in triplicate with data from all three trials included in the data analysis.

MRC-5 = experiment: Mammalian cell cytotoxicity; format: cell-based; conditions: dividing cell cultures
Protocol: as §5, §6

HeLa = experiment: Mammalian cell cytotoxicity; format: cell-based; conditions: dividing cell cultures
Protocol: as §5, §6

[18] = system: four strains of Gram-positive organisms or nine strains of Gram-negative bacilli; experiment: Stand-alone antibacterial activity; format: cell-based; conditions: all MICs
[19] = system: serine β-lactamases (CTX-M-15, SHV-5, KPC-2, P99AmpC); experiment: Kinetic parameters, summary across enzymes; format: biochemical; conditions: range across the four enzymes
[20] = design: method as in earlier work; conditions: cited from earlier work
[21] = DrugMatrixScreen selectivity panel; conditions: 10 μM; 129 in vitro assays
Protocol: as §3, §4

[22] = substrate cefotaxime, mean from duplicate measurements, read-out: IC50
[23] = substrate nitrocefin, mean from duplicate measurements, read-out: IC50
[24] = half-life of active site occupancy

## NC(=O)[C@@H]1CC[C@@H]2CN1C(=O)N2OS(=O)(=O)O [Avibactam, avibactam]
CTX-M-15 [1]; [22]
  IC50: 3 nM
P99AmpC [2]
  IC50: 20 nM
CMY-2; [23]
  IC50: 7 nM
OXA-1
  IC50: 40 nM

## O=C(O)[C@H]1/C(=C/CO)O[C@@H]2CC(=O)N21 [Clavulanic acid, clavulanic acid]
CTX-M-15 [1]; [22]
  IC50: 40 nM
OXA-48
  IC50: 14.3 µM
KPC-2 [3]
  IC50: 1800 nM
[4]
  MIC: 32 µg/mL (≈ 161 µM)
OXA-1
  IC50: 120 nM

## C[C@H]1COc2c(N3CCN(C)CC3)c(F)cc3c(=O)c(C(=O)O)cn1c23 [Levofloxacin, levofloxacin]
[5]
  MIC: 32 µg/mL (≈ 88.6 µM)
[6]
  MBC: > 32 µg/mL
[7]
  MBC: ≥ 64 µg/mL
[8]; Enterobacter cloacae, lowest concentration with ≥3-log10 CFU/ml reduction at 24 h, read-out: MBC
  MBC: 0.12 µg/mL (≈ 0.332 µM)
[8]; Fig. 3b
  outcome of 24-h time-kill assay: bactericidal activity
E. coli ESBL4 (CTX-M-15) [9]
  MBC: 32 µg/mL (≈ 88.6 µM)
[10]
  MIC: 0.12 µg/mL (≈ 0.332 µM)
[11]
  MIC: 64 µg/mL (≈ 177 µM)
E. coli ESBL4 (CTX-M-15) [12]
  MIC: 32 µg/mL (≈ 88.6 µM)

## C[C@]1(Cn2ccnn2)[C@H](C(=O)O)N2C(=O)C[C@H]2S1(=O)=O [Tazobactam, tazobactam]
OXA-48
  IC50: 3.5 µM
KPC-2 [3]
  IC50: 1700 nM
CMY-2; [23]
  IC50: 410 nM

## CCC(=O)N[C@H]1Cc2cccc(C(=O)O)c2OB1O [VNRX-5236]
KPC-2 [13]
  Ki: 110 nM
KPC-2 [13]; [24]
  t1/2: 46 ± 2 min
KPC-2 [13]; off rate, jump dilution
  k−2: 2.5 ± 0.1 10^−4 s^−1
CTX-M-15 [1]
  IC50: 20 nM
P99AmpC [14]; [24]
  t1/2: 5 ± 0.1 min
P99AmpC [14]; off rate, jump dilution
  k−2: 24 ± 0.5 10^−4 s^−1
[15]
  inhibition at 100 µM: 56%
[16]
  inhibition at 100 µM: 77%
SHV-5
  Ki: 40 nM
SHV-5; off rate, jump dilution
  k−2: 12.7 ± 0.07 10^−4 s^−1
KPC-2 [3]
  IC50: 80 nM
CTX-M-15 [17]
  Ki: 10 nM
CTX-M-15 [17]; [24]
  t1/2: 26 ± 0.6 min
CTX-M-15 [17]; off rate, jump dilution
  k−2: 4.5 ± 0.1 10^−4 s^−1
3T3
  noncytotoxic up to the highest concentration tested: > 1 mg/mL
MRC-5
  noncytotoxic up to the highest concentration tested: > 1 mg/mL
HeLa
  noncytotoxic up to the highest concentration tested: > 1 mg/mL
CMY-2
  IC50: 10 nM
[18]
  MIC: ≥ 128 µg/mL
[19]
  Dissociation rates (k-2): 2.5 to 24 10^−4 s^−1
  Ki: 10 to 110 nM
OXA-1
  IC50: 70 nM

## CCC(=O)N[C@H]1Cc2cccc(C(=O)OCOC(=O)C(CC)CC)c2OB1O [VNRX-7145]
[20]; all PK time points
  levels of circulating VNRX-7145: exceedingly low
[20]; rats, dogs, and monkeys
  oral bioavailability: high oral bioavailability
[21]
  off-target findings: no notable off-target findings
3T3
  noncytotoxic up to the highest concentration tested: > 0.128 mg/mL
MRC-5
  noncytotoxic up to the highest concentration tested: > 0.128 mg/mL
[18]
  MIC: ≥ 128 µg/mL
